Source: patent publication US20230339915A1 (Vertex Pharmaceuticals Incorporated, priority 2020, published 2023)
pEC50, pIC50: −log10 of the molar value.

Columns and labels:
[1] = biological target: NL20 human bronchial epithelial cells expressing human Z-AAT (Homo sapiens (Human), UniProt P01009, E366K); assay: AAT Function Assay (MSD Assay NL20-SI Cell Line); format: cell-based; details: functionally active AAT (AAT-hNE complex, MSD) in supernatant of NL20 cells expressing human Z-AAT; read-out: NL20 Functional EC50
Chain of NL20 human bronchial epithelial cells expressing human Z-AAT (P01009 25-418 E366K limits assumed): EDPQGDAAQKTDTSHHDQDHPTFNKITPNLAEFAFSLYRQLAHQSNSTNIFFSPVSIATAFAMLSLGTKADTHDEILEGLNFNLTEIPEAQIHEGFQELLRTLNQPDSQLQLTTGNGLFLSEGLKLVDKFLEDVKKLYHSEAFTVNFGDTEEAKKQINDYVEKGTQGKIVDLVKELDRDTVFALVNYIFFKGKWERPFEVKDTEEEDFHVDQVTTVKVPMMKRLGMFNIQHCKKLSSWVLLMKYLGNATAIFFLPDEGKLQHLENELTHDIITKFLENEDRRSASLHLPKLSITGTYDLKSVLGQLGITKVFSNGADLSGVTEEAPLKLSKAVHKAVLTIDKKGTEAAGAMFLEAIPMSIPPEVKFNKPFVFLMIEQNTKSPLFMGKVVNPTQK
Procedure, shortened: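 NL20 bronchial epithelial cells expressing Z-AAT, induced with 0.1 μM doxycycline, were treated with compound overnight. Functional AAT in supernatant was measured by complex formation with excess human neutrophil elastase, captured on anti-AAT plates, detected with Sulfo-tagged anti-elastase on MSD, and quantified against M-AAT standards (0.156–320 ng/mL).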

[2] = biological target: purified Z-AAT protein from human plasma (Homo sapiens (Human), UniProt P01009, E366K); assay: Biochemical Assay (Z-AAT Elastase Activity Assay); details: purified Z-AAT pre-incubated with compound 1 hour, then human neutrophil elastase and fluorescent substrate
Chain of purified Z-AAT protein from human plasma (P01009 25-418 E366K limits assumed): as above
Procedure, shortened: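 Purified plasma Z-AAT (20 nM) preincubated with compounds 1 h at room temperature, then 3 nM human neutrophil elastase added in PBS + 0.01% BRIJ35 for 30 min to form suicide complex. Residual elastase activity read immediately by fluorescence after adding 300 μM MeOSuc-AAPV-AMC substrate solution.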

| Structure (SMILES) | pEC50 [1] | pIC50 [2] |
| --- | --- | --- |
| Cc1cc(-n2c(C(C)C)c(C#N)c3cc(O)ccc32)ccc1F [Compound 187] | 5.70 to 6.30 | < 4.52 |
| N#Cc1c(C2CCC2)n(-c2ccc(F)cc2)c2ccc(O)cc12 [Compound 188] | 5.70 to 6.30 | < 4.52 |
| C/C=C/c1c(C#N)c2cc(O)ccc2n1-c1ccc(F)cc1 [Compound 191, 1-(4-fluorophenyl)-5-hydroxy-2-[(E)-prop-1-enyl]indole-3-carbonitrile] | < 5.70 | < 4.52 |
| CCC(O)c1c(C#N)c2cc(O)ccc2n1-c1ccnc(C)c1 (stereo not shown) [Compound 192, 5-hydroxy-2-(I-hydroxypropyl)-1-(2-methylpyridin-4-yl)-1H-indole-3-carbonitrile] | < 5.70 | < 4.52 |
| Cc1cc(-n2c(C(C)C)c(C#N)c3cc(O)c(F)cc32)ccc1F [Compound 193, 6-fluoro-1-(4-fluoro-3-methylphenyl)-5-hydroxy-2-isopropyl-1H-indole-3-carbonitrile] | 5.70 to 6.30 | < 4.52 |
| N#Cc1c(C2CCOCC2)n(-c2ccc(F)cc2)c2ccc(O)cc12 [Compound 194, 1-(4-fluorophenyl)-5-hydroxy-2-(tetrahydro-2H-pyran-4-yl)-1H-indole-3-carbonitrile] | 5.70 to 6.30 | < 4.52 |
| CC(C)(C)OC(=O)N1CC(c2c(C#N)c3cc(O)ccc3n2-c2ccc(F)cc2)C1 [Compound 195] | < 5.70 | < 4.52 |
| N#Cc1c(C2CNC2)n(-c2ccc(F)cc2)c2ccc(O)cc12 [Compound 196] | < 5.70 | < 4.52 |
| N#Cc1c(C2CCC2)n(-c2ccccc2)c2ccc(O)cc12 [Compound 197] | 5.70 to 6.30 | < 4.52 |
| N#Cc1c(C2CCCO2)n(-c2ccc(F)cc2)c2ccc(O)cc12 (stereo not shown) [Compound 198] | < 5.70 | < 4.52 |
| CC(C)(C)OC(=O)N1CCC(c2c(C#N)c3cc(O)ccc3n2-c2ccc(F)cc2)CC1 [Compound 199] | < 5.70 | < 4.52 |
| N#Cc1c(C2CCNCC2)n(-c2ccc(F)cc2)c2ccc(O)cc12 [Compound 200] | < 5.70 | < 4.52 |
| N#Cc1c(C2CCOCC2)n(-c2ccccc2)c2ccc(O)cc12 [Compound 202] | < 5.70 | < 4.52 |
| N#Cc1c(C2CC2)n(-c2ccc(F)cc2)c2ccc(O)cc12 [Compound 203] | > 6.30 | < 4.52 |
| CCCn1c(C(C)C)c(C#N)c2cc(O)ccc21 [Compound 204, 5-hydroxy-2-isopropyl-1-propyl-1H-indole-3-carbonitrile] | < 5.70 | < 4.52 |
| CCCn1c(C(C)(C)C)c(C#N)c2cc(O)ccc21 [Compound 205, 2-(tert-butyl)-5-hydroxy-1-propyl-1H-indole-3-carbonitrile] | < 5.70 | < 4.52 |
| CS(N)(=O)=Cc1c(C#N)c2cc(O)ccc2n1-c1ccc(F)cc1 (stereo not shown) [Compound 206, 1-(3-cyano-1-(4-fluorophenyl)-5-hydroxy-1H-indol-2-yl)-S-methylmethanesulfinamide] | < 5.70 | < 4.52 |
| N#Cc1c(C2=S(N)(=O)CCC2)n(-c2ccc(F)cc2)c2ccc(O)cc12 (stereo not shown) [Compound 207] | < 5.70 | < 4.52 |

| Structure (SMILES) | pEC50 [1] | pIC50 [2] |
| --- | --- | --- |
| Cc1cc(-n2c(C)c(C#N)c3cc(O)cc(C)c32)ccc1F [Compound 208, 1-(4-fluoro-3-methylphenyl)-5-hydroxy-2,7-dimethyl-1H-indole-3-carbonitrile] | < 5.70 | < 4.52 |
| Cc1cc2c(cc1O)c(C#N)c(C)n2-c1ccc(F)c(C)c1 [Compound 210] | < 5.70 | < 4.52 |
| Cc1cc(-n2c(C)c(C#N)c3cc(O)c(N)cc32)ccc1F [Compound 211, 6-amino-1-(4-fluoro-3-methylphenyl)-5-hydroxy-2-methyl-1H-indole-3-carbonitrile] | < 5.70 | < 4.52 |
| Cc1cc(-n2c(C)c(C#N)c3cc(O)cc(N)c32)ccc1F [Compound 212, 7-amino-1-(4-fluoro-3-methyl-phenyl)-5-hydroxy-2-methyl-indole-3-carbonitrile] | < 5.70 | < 4.52 |
| CNS(=O)(=O)N1CC(c2c(C(C)C)n(-c3ccc(F)c(C)c3)c3ccc(O)cc23)C1 [Compound 213, 3-(1-(4-fluoro-3-methylphenyl)-5-hydroxy-2-isopropyl-1H-indol-3-yl)-N-methylazetidine-1-sulfonamide] | < 5.70 | < 5.30 |
| CC(=O)NS(=O)(=O)N1CC(c2c(C(C)C)n(-c3ccc(F)c(C)c3)c3ccc(O)cc23)C1 [Compound 214, N-((3-(1-(4-fluoro-3-methylphenyl)-5-hydroxy-2-isopropyl-1H-indol-3-yl)azetidin-1-yl)sulfonyl)acetamide] | < 5.70 | < 4.52 |
| Cc1cc(-n2c(C(C)C)c([C@H]3C[C@@H](C#N)C3)c3cc(O)ccc32)ccc1F [Compound 215, 3-[1-(4-fluoro-3-methyl-phenyl)-5-hydroxy-2-isopropyl-indol-3-yl]cyclobutanecarbonitrile] | < 5.70 | < 5.30 |
| Cc1cc(-n2c(C(C)C)c([C@@H]3COC[C@@H]3C#N)c3cc(O)ccc32)ccc1F [Compound 216] | < 5.70 | < 5.30 |
| Cc1cc(-n2c(C(C)C)c([C@H]3C[C@@H](c4nn[nH]n4)C3)c3cc(O)ccc32)ccc1F [Compound 217, 1-(4-fluoro-3-methyl-phenyl)-2-isopropyl-3-[3-(2H-tetrazol-5-yl)cyclobutyl]indol-5-ol] | 5.70 to 6.30 | < 5.30 |
| Cc1cc(-n2c(C3CCOCC3)c([C@H]3C[C@H](c4nn[nH]n4)C3)c3cc(O)ccc32)ccc1F [Compound 218, 1-(4-fluoro-3-methyl-phenyl)-2-tetrahydropyran-4-yl-3-[3-(2H-tetrazol-5-yl)cyclobutyl]indol-5-ol] | < 5.70 | < 4.52 |
| Cc1cc(-n2c(C(C)C)c([C@H]3C[C@@H](C(=O)NS(C)(=O)=O)C3)c3cc(O)ccc32)ccc1F [Compound 219, Cis-3-[1-(4-fluoro-3-methyl-phenyl)-5-hydroxy-2-isopropyl-indol-3-yl]-N-methylsulfonyl-cyclobutanecarboxamide] | < 5.70 | < 5.30 |
| Cc1cc(-n2c(C(C)C)c([C@H]3C[C@H](C(=O)NS(C)(=O)=O)C3)c3cc(O)ccc32)ccc1F [Compound 220, trans-3-[1-(4-fluoro-3-methyl-phenyl)-5-hydroxy-2-isopropyl-indol-3-yl]-N-methylsulfonyl-cyclobutanecarboxamide] | < 5.70 | < 5.30 |
| Cc1cc(-n2c(C3CCOCC3)c([C@H]3C[C@H](c4noc(=O)[nH]4)C3)c3cc(O)ccc32)ccc1F [Compound 223, Trans-3-[3-[1-(4-fluoro-3-methyl-phenyl)-5-hydroxy-2-tetrahydropyran-4-yl-indol-3-yl]cyclobutyl]-4H-1,2,4-oxadiazol-5-one] | 5.70 to 6.30 | < 4.52 |
| Cc1cc(-n2c(C3CCOCC3)c([C@H]3C[C@@H](c4noc(=O)[nH]4)C3)c3cc(O)ccc32)ccc1F [Compound 224, cis-3-[3-[1-(4-fluoro-3-methyl-phenyl)-5-hydroxy-2-tetrahydropyran-4-yl-indol-3-yl]cyclobutyl]-4H-1,2,4-oxadiazol-5-one] | < 5.70 | < 4.52 |
| Cc1cc(-n2c(C(C)C)c([C@H]3C[C@H](CO)C3)c3cc(O)ccc32)ccc1F [Compound 225, Trans-1-(4-fluoro-3-methyl-phenyl)-3-[3-(hydroxymethyl)cyclobutyl]-2-isopropyl-indol-5-ol] | < 5.70 | < 4.52 |
| Cc1cc(-n2c(C(C)C)c([C@H]3C[C@@H](CO)C3)c3cc(O)ccc32)ccc1F [Compound 226, cis-1-(4-fluoro-3-methyl-phenyl)-3-[3-(hydroxymethyl)cyclobutyl]-2-isopropyl-indol-5-ol] | < 5.70 | < 4.52 |
| Cc1cc(-n2c(C(C)C)c([C@@H]3CC[C@@H]3CO)c3cc(O)ccc32)ccc1F [Compound 227] | < 5.70 | < 4.52 |
